Publication PMC10534724, “Interaction of ALK Inhibitors with Polyspecific Organic Cation Transporters and the Impact of Substrate-Dependent Inhibition on the Prediction of Drug–Drug Interactions” (Pharmaceutics, 2023)
Where two headings read alike, the source gives them in different places.

Tests used:
Type in all cases: in vitro ADME
[1] = target: T1, hMATE2-K (Homo sapiens, UniProt Q86VL8); test: Inhibition of hMATE2-K-mediated substrate uptake in transfected HEK293 cells (pH 8.0); details: for IC50: mean ± SD; for In vivo DDI study recommendation, hMATE2-K: FDA-recommended criteria
T1 construct: expressed in transfected cells

[2] = target: T2, hOCT1 (Homo sapiens, UniProt O15245); test: Inhibition of hOCT1-mediated substrate uptake in transfected HEK293 cells; details: for inhibition at 20 µM: 20 µM inhibitor, 1 µM mIBG; for In vivo DDI study recommendation, hOCT1: FDA-recommended criteria
T2 construct: expressed in transfected cells
T2 sequence (O15245 1-554): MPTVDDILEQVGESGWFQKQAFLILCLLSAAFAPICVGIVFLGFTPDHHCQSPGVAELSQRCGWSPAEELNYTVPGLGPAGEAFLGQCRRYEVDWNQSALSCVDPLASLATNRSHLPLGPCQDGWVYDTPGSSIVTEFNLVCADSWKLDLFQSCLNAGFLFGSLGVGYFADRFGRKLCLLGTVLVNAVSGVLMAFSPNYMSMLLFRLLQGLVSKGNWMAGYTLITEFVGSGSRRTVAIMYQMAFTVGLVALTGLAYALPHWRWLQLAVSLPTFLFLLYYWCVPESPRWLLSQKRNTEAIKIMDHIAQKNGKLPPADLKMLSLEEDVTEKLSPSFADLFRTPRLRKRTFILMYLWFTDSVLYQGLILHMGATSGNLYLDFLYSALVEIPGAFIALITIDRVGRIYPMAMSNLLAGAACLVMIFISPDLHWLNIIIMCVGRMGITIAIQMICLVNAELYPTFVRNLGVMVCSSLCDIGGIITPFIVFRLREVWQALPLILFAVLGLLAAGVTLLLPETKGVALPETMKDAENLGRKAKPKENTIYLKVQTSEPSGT

[3] = target: T3, hMATE1 (Homo sapiens, UniProt Q96FL8); test: Inhibition of hMATE1-mediated substrate uptake in transfected HEK293 cells (pH 8.0); details: for inhibition at 20 µM: 20 µM inhibitor, 1 µM mIBG; for In vivo DDI study recommendation, hMATE1: FDA-recommended criteria
T3 construct: expressed in transfected cells
T3 sequence (Q96FL8 1-570): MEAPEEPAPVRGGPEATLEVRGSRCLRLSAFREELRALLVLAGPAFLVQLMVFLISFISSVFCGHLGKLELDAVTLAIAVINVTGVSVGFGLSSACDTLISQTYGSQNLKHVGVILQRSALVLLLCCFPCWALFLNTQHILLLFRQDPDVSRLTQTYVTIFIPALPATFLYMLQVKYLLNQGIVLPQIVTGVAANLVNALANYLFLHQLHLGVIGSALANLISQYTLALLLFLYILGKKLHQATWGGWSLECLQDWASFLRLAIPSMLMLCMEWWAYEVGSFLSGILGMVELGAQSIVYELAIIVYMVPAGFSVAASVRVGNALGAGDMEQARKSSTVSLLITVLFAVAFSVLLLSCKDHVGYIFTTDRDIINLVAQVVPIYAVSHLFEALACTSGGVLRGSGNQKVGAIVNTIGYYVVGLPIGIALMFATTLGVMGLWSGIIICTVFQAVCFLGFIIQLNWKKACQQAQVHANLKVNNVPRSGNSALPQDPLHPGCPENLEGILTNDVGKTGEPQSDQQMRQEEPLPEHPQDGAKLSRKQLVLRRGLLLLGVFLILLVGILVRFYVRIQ

[4] = target: T4, hOCT2 (Homo sapiens, UniProt O15244); test: Inhibition of hOCT2-mediated substrate uptake in transfected HEK293 cells; set-up: expressed in transfected cells; details: for In vivo DDI study recommendation, hOCT2: FDA-recommended criteria
T4 sequence (O15244 1-555): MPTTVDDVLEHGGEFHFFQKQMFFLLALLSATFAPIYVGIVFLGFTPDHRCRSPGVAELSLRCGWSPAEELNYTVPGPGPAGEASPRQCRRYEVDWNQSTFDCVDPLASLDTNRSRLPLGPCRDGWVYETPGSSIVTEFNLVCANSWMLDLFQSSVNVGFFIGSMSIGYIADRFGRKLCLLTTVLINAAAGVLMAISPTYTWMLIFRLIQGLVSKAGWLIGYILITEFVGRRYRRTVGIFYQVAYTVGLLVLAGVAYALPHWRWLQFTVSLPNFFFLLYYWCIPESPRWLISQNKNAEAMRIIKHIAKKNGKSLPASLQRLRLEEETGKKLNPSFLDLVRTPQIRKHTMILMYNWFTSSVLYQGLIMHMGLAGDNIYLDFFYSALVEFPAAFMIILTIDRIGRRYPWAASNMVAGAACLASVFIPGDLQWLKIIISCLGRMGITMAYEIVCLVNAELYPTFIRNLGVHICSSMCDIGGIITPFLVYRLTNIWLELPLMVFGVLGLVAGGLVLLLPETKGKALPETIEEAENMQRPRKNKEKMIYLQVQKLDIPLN

[5] = target: T5, hOCT3 (Homo sapiens, UniProt O75751); test: Inhibition of hOCT3-mediated substrate uptake in transfected HEK293 cells; details: for In vivo DDI study recommendation, hOCT3: FDA-recommended criteria
T5 construct: expressed in transfected cells
T5 sequence (O75751 1-556): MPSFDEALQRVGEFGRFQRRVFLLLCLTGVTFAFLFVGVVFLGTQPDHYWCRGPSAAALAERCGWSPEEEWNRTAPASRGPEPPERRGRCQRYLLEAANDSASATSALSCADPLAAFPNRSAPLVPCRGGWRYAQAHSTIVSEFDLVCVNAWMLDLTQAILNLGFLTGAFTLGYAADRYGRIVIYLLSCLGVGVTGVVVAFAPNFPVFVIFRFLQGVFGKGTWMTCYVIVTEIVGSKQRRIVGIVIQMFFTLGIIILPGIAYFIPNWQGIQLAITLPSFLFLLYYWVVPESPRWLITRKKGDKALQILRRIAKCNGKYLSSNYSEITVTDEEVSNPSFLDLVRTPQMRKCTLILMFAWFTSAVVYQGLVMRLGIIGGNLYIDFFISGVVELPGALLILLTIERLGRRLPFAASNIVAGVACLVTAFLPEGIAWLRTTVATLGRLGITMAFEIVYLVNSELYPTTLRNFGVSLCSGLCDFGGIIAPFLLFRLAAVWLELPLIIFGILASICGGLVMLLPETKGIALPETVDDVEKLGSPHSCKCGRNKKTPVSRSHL

[6] = HEK293, 20 µM inhibitor, 1 µM mIBG, 2 min, 37 °C

T1 sequence (Q86VL8 1-566 isoform Q86VL8-3): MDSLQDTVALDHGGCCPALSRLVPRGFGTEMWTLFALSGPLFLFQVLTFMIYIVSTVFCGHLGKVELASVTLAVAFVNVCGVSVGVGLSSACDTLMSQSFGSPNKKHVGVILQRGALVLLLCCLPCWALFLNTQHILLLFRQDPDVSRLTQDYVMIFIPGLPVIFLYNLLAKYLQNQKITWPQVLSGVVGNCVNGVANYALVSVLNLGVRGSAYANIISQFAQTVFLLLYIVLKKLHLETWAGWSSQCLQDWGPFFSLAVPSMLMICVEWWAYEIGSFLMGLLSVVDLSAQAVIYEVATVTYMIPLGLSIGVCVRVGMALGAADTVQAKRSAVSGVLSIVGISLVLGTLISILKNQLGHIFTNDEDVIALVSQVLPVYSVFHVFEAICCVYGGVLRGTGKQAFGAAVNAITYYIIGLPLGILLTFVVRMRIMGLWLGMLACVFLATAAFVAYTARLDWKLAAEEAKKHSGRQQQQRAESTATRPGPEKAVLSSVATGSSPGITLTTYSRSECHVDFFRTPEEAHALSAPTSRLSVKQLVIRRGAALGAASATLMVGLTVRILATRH

`COc1cc(N2CCC(N3CCN(C)CC3)CC2)ccc1Nc1ncc(Cl)c(Nc2ccccc2P(C)(C)=O)n1` [Brigatinib] was tested, and the “substrate dependency, hMATE2-K: more potent with metformin than with mIBG” value ([1]; IC50 ratio mIBG/metformin) was “approximately 4 fold”, the IC50 ([1]; substrate 1 µM [3H]MPP+, HEK293, 2 min, 37 °C, read-out: IC50, hMATE2-K-mediated MPP+ uptake) was over 300 µM and the IC50 ([1]; substrate 8.9 µM [14C]metformin, HEK293, 2 min, 37 °C, read-out: IC50, hMATE2-K-mediated metformin uptake) was 38.3 ± 1.7 µM. For the same compound, the “In vivo DDI study recommendation, hMATE2-K” value ([1]; substrate MPP+) was “No”, the “In vivo DDI study recommendation, hMATE2-K” value ([1]; substrate mIBG) was “No” and the “In vivo DDI study recommendation, hMATE2-K” value ([1]; substrate metformin) was “No”. The IC50 [2] was 1.12 ± 0.04 µM, the inhibition at 20 µM ([2]; HEK293, 2 min, 37 °C) was over 50% and the “substrate dependency, hOCT1: more potent with metformin than with MPP+” value ([2]; IC50 ratio MPP+/metformin) was about 22 fold. For the same compound, the “substrate dependency, hOCT1: more potent with metformin than with mIBG” value ([2]; IC50 ratio mIBG/metformin) was “approximately 15 fold”, the IC50 ([2]; substrate 1 µM [3H]MPP+, HEK293, 2 min, 37 °C, mean ± SD, read-out: IC50, hOCT1-mediated MPP+ uptake) was 25.1 ± 1.2 µM and the IC50 ([2]; substrate 1 µM mIBG, HEK293, 2 min, 37 °C, mean ± SD, read-out: IC50, hOCT1-mediated mIBG uptake) was 17.1 ± 0.6 µM. The “In vivo DDI study recommendation, hOCT1” value ([2]; substrate MPP+) was “No”, the “In vivo DDI study recommendation, hOCT1” value ([2]; substrate mIBG) was “No” and the “In vivo DDI study recommendation, hOCT1” value ([2]; substrate metformin) was “Yes”. For the same compound, the inhibition at 20 µM ([3]; HEK293, 2 min, 37 °C) was over 80%, the IC50 ([3]; IC50, hMATE1-mediated MPP+ uptake, substrate 1 µM [3H]MPP+, HEK293, 2 min, 37 °C, mean ± SD) was 2.03 ± 0.24 µM and the IC50 ([3]; IC50, hMATE1-mediated [14C]metformin uptake, Coincubation, coincubation (no preincubation), preincubation study, 8.9 µM [14C]metformin, 2 min uptake) was 1.41 ± 0.06 µM. For the same compound, the IC50 ([3]; IC50, hMATE1-mediated [14C]metformin uptake, Preincubation, 30-min preincubation with inhibitor at 37 °C, 8.9 µM [14C]metformin, 2 min uptake) was 0.97 ± 0.09 µM, the IC50 ([3]; IC50, hMATE1-mediated mIBG uptake, substrate 1 µM mIBG, HEK293, 2 min, 37 °C, mean ± SD) was 1.93 ± 0.15 µM and the IC50 ([3]; IC50, hMATE1-mediated metformin uptake, substrate 8.9 µM [14C]metformin, HEK293, 2 min, 37 °C, mean ± SD) was 1.67 ± 0.14 µM. The “substrate dependency, hMATE1: differences in IC50 values across substrates” value ([3]; metformin, mIBG, MPP+) was “below two-fold”, the “In vivo DDI study recommendation, hMATE1” value ([3]; substrate MPP+) was “Yes” and the “In vivo DDI study recommendation, hMATE1” value ([3]; substrate mIBG) was “Yes”. The “In vivo DDI study recommendation, hMATE1” value ([3]; substrate metformin) was “Yes”, the IC50 ([4]; 30-min preincubation with inhibitor at 37 °C, 8.9 µM [14C]metformin, 2 min uptake, read-out: IC50, hOCT2-mediated [14C]metformin uptake, Preincubation) was 15.5 ± 0.5 µM and the IC50 ([4]; coincubation (no preincubation), preincubation study, 8.9 µM [14C]metformin, 2 min uptake, read-out: IC50, hOCT2-mediated [14C]metformin uptake, Coincubation) was 36 ± 1.1 µM. For the same compound, the IC50 ([4]; substrate 1 µM [3H]MPP+, HEK293, 2 min, 37 °C, mean ± SD, read-out: IC50, hOCT2-mediated MPP+ uptake) was over 300 µM, the IC50 ([4]; substrate 1 µM mIBG, HEK293, 2 min, 37 °C, mean ± SD, read-out: IC50, hOCT2-mediated mIBG uptake) was over 100 µM and the IC50 ([4]; substrate 8.9 µM [14C]metformin, HEK293, 2 min, 37 °C, mean ± SD, read-out: IC50, hOCT2-mediated metformin uptake) was 30.2 ± 1.5 µM. For the same compound, the “In vivo DDI study recommendation, hOCT2” value ([4]; substrate MPP+) was “No”, the “In vivo DDI study recommendation, hOCT2” value ([4]; substrate mIBG) was “No” and the “In vivo DDI study recommendation, hOCT2” value ([4]; substrate metformin) was “No”. For the same compound, the “inhibition of hOCT2 (in words)” value ([4]; substrates metformin, mIBG, MPP+) was “not a strong inhibitor”, the IC50 [5] was 0.85 ± 0.07 µM and the inhibition at 20 µM ([5]; HEK293, read-out: inhibition of mIBG uptake by hOCT3) was over 80%. The “substrate dependency, hOCT3: differences in IC50 values across substrates” value ([5]; metformin, mIBG, MPP+) was “up to 3 fold”, the IC50 ([5]; substrate 1 µM [3H]MPP+, HEK293, 2 min, 37 °C, mean ± SD, read-out: IC50, hOCT3-mediated MPP+ uptake) was 2.54 ± 0.14 µM and the IC50 ([5]; substrate 1 µM mIBG, HEK293, 2 min, 37 °C, mean ± SD, read-out: IC50, hOCT3-mediated mIBG uptake) was 1.2 ± 0.03 µM. The “In vivo DDI study recommendation, hOCT3” value ([5]; substrate MPP+) was “Yes”, the “In vivo DDI study recommendation, hOCT3” value ([5]; substrate mIBG) was “Yes” and the “In vivo DDI study recommendation, hOCT3” value ([5]; substrate metformin) was “Yes”.

Compound `C[C@H]1Oc2cc(cnc2N)-c2c(nn(C)c2C#N)CN(C)C(=O)c2ccc(F)cc21` [lorlatinib] has an inhibition at 20 µM [1, 6] of at most 50%, an inhibition at 20 µM ([2]; HEK293, 2 min, 37 °C) of at most 50% and an inhibition at 20 µM ([3]; HEK293, 2 min, 37 °C) of at most 50%. The inhibition at 20 µM [4, 6] was at most 50% and the inhibition at 20 µM ([5]; HEK293, 20 µM inhibitor, 1 µM mIBG, 2 min, 37 °C, read-out: inhibition of mIBG uptake by hOCT3) was at most 50%.
